In a compilation of properties of binary mixtures (doi:10.1016/j.molliq.2022.118621):

Assay: xn = mol fraction of the nth substance listed
Settings: 100 kPa

CC(O)C(=O)[O-].CCOCCn1cc[n+](C)c1 + O
Settings | electrical conductivity [S/m] | viscosity [mPa·s]
288.15 K, x1 = 0.8091 | 0.243 | 86.2
288.15 K, x1 = 0.8366 | 0.214 | 93.5
288.15 K, x1 = 0.87 | 0.185 | 103
288.15 K, x1 = 0.9014 | 0.157 | 110.4
288.15 K, x1 = 0.9386 | 0.127 | 119.7
288.15 K, x1 = 1 | 0.082 | 132.7
293.15 K, x1 = 0.87 | 0.229 | 80.3
293.15 K, x1 = 0.9386 | 0.172 | 90.8
293.15 K, x1 = 1 | 0.123 | 99.1
298.15 K, x1 = 0.8091 | 0.336 | 52.9
298.15 K, x1 = 0.8366 | 0.306 | 56.21
298.15 K, x1 = 0.9014 | 0.248 | 63.93
298.15 K, x1 = 0.9386 | 0.218 | 68.22
298.15 K, x1 = 1 | 0.171 | 74.1
303.15 K, x1 = 0.8091 | 0.389 | 41.86
303.15 K, x1 = 0.8366 | 0.358 | 44.21
303.15 K, x1 = 0.87 | 0.33 | 47.25
303.15 K, x1 = 0.9014 | 0.302 | 49.83
303.15 K, x1 = 1 | 0.228 | 56.72
308.15 K, x1 = 0.9014 | 0.397 | 37.68
308.15 K, x1 = 0.9386 | 0.368 | 40.01
308.15 K, x1 = 1 | 0.314 | 43.14
313.15 K, x1 = 0.8091 | 0.572 | 25.13
313.15 K, x1 = 0.8366 | 0.544 | 26.5
313.15 K, x1 = 0.87 | 0.516 | 28.21
313.15 K, x1 = 0.9014 | 0.488 | 29.62
313.15 K, x1 = 0.9386 | 0.463 | 31.44
313.15 K, x1 = 1 | 0.418 | 33.82
318.15 K, x1 = 0.8091 | 0.713 | 18.65
318.15 K, x1 = 0.8366 | 0.681 | 19.82
318.15 K, x1 = 0.87 | 0.648 | 21.2
318.15 K, x1 = 0.9386 | 0.587 | 24.02
318.15 K, x1 = 1 | 0.536 | 26.08

CC(=O)[O-].CCOCCn1cc[n+](C)c1 + O
Settings | electrical conductivity [S/m] | viscosity [mPa·s]
288.15 K, x1 = 0.8294 | 0.352 | 41.8
288.15 K, x1 = 0.852 | 0.313 | 42.73
288.15 K, x1 = 0.8822 | 0.271 | 43.97
288.15 K, x1 = 0.9125 | 0.232 | 45.18
288.15 K, x1 = 0.9447 | 0.195 | 46.51
288.15 K, x1 = 1 | 0.13 | 48.34
293.15 K, x1 = 0.8294 | 0.415 | 33.23
293.15 K, x1 = 0.852 | 0.377 | 33.91
293.15 K, x1 = 0.8822 | 0.329 | 34.81
293.15 K, x1 = 1 | 0.18 | 38.07
298.15 K, x1 = 0.8294 | 0.463 | 26.38
298.15 K, x1 = 0.852 | 0.427 | 26.91
298.15 K, x1 = 0.8822 | 0.384 | 27.59
298.15 K, x1 = 0.9125 | 0.347 | 28.28
298.15 K, x1 = 1 | 0.247 | 30.01
303.15 K, x1 = 0.8294 | 0.551 | 20.99
303.15 K, x1 = 0.852 | 0.513 | 21.43
303.15 K, x1 = 0.8822 | 0.471 | 22
303.15 K, x1 = 0.9125 | 0.431 | 22.55
303.15 K, x1 = 1 | 0.329 | 23.97
308.15 K, x1 = 0.8294 | 0.674 | 16.9
308.15 K, x1 = 0.852 | 0.633 | 17.25
308.15 K, x1 = 0.9125 | 0.544 | 18.18
308.15 K, x1 = 0.9447 | 0.506 | 18.66
308.15 K, x1 = 1 | 0.435 | 19.35
313.15 K, x1 = 0.8294 | 0.804 | 13.77
313.15 K, x1 = 0.9125 | 0.676 | 14.84
313.15 K, x1 = 0.9447 | 0.638 | 15.22
318.15 K, x1 = 0.8294 | 0.985 | 11.31
318.15 K, x1 = 0.852 | 0.941 | 11.54
318.15 K, x1 = 0.8822 | 0.887 | 11.83
318.15 K, x1 = 0.9125 | 0.843 | 12.15
318.15 K, x1 = 0.9447 | 0.797 | 12.45
318.15 K, x1 = 1 | 0.719 | 12.9
